# Measured values published in patent US20050267182A1, “Urea derivatives as FLT-3 modulators” (Ambit Biosciences Corporation, priority 2003, published 2005).
# How the values were obtained:
# [1] = target: T1, FLT3 (Homo sapiens, UniProt P36888); assay: Binding constant (Kd) measurement, phage-displayed kinase competition binding assay; conditions: for Binding Assay: FLT3(JMminus): FLT3(JMminus) construct; for Binding Assay: FLT3(DKIN): FLT3(DKIN) construct
# T1 construct: FLT3(DKIN); made in house
# T1 sequence (P36888 610-943 limits assumed): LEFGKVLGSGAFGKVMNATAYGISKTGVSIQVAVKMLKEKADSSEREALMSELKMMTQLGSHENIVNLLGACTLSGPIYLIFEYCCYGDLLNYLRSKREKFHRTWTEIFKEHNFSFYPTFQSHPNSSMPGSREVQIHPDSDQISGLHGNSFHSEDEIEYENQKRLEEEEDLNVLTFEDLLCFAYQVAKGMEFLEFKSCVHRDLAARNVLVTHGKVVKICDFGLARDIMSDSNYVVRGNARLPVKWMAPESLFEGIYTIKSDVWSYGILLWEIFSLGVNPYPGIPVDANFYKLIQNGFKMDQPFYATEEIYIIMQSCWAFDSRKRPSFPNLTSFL
# Source text: Binding Constant (Kd) Measurements for Small-Molecule-Kinase Interactions
# The term “ND” represents non-determined values.
# [2] = tested on: MV4,11 cells; assay: FLT3 assay using MV4,11 cells (cellular proliferation, MTS); type: cell-based, human; conditions: cell assay code CS0001
# How it was run: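 MV4,11 AML cells, […] switch to DMEM/10% FBS overnight, plated at 10,000 cells/well and exposed to serially diluted compounds in duplicate for 3 days at 37° C., 5% CO2. Proliferation read by MTS added for 2 h.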
# [3] = tested on: CS0005; assay: Cell Assay: CS0005; type: cell-based; conditions: cell assay code CS0005
# [4] = tested on: CS0002; assay: Cell Assay: CS0002; type: cell-based; conditions: cell assay code CS0002
SMILES,Binding Assay: FLT3(JMminus) [1],Cell Assay: CS0001:IC50 [2],Cell Assay: CS0005:IC50 [3],Cell Assay: CS0002:IC50 [4],Binding Assay: FLT3(DKIN) [1],IC50 [4],Binding Assay: FLT3(JMplus) ([1]; FLT3(JMplus) construct)
CC(=O)Oc1cccnc1C(=O)Nc1ccc(NC(=O)Nc2cc(C(C)(C)C)on2)cc1 [Compound N79],+ + + +,+ + + +,+ + + +,+ +,–,–,–
CC(C)(C)c1cc(NC(=O)Nc2ccc(C(=O)Nc3ccc(OCC4CCC4)cc3)cc2)no1 [Compound N100],–,+ + + +,+ + + +,+ +,+ + + +,> 10 µM,–
CC(C)(C)c1cc(NC(=O)Nc2ccc(NC(=O)c3cnnc4ccccc34)cc2)no1 [Compound N147],–,+ + + +,+ + + +,+ +,+ + + +,–,–
CC(C)(C)c1cc(NC(=O)Nc2ccc(NC(=O)c3cc(N4CCOCC4)nc(N4CCOCC4)n3)cc2)no1 [Compound N54],–,+ + + +,+ + + +,+ + +,+ + + +,–,–
Cc1nc(-c2ccc(C(=O)Nc3ccc(NC(=O)Nc4cc(C(C)(C)C)on4)cc3)s2)cs1 [Compound N173],–,+ + + +,+ + + +,–,+ + + +,> 10 µM,–
CN(C)c1ccc(C(=O)Nc2ccc(NC(=O)Nc3cc(C(C)(C)C)on3)cc2)cn1 [Compound N159],+ + + +,+ + + +,+ + + +,+ +,–,–,–
COc1ccnc(Nc2ccc(C(=O)Nc3ccc(NC(=O)Nc4cc(C(C)(C)C)on4)cc3)cc2)n1 [Compound N51],–,+ + + +,+ + + +,+ +,+ + + +,–,–
CC(=O)c1ccc(N2CCC(C(=O)Nc3ccc(NC(=O)Nc4cc(C(C)(C)C)on4)cc3)CC2)cc1 [Compound N65],–,+ + + +,+ + +,–,+ + + +,> 10 µM,–
CC(C)(C)c1cc(NC(=O)Nc2ccc(OCc3ccc(F)cc3)cc2)no1 [Compound G35],–,+ + + +,+ + +,–,+ + + +,> 10 µM,–
"COc1cc2nc(Cl)nc(Nc3ccc(NC(=O)Nc4cc(C(C)(C)C)on4)cc3)c2cc1OC [Compound O1, 1-(4-(2-chloro-6,7-dimethoxyquinazolin-4-ylamino)phenyl)-3-(5-tert-butylisoxazol-3-yl)urea]",–,+ + + +,+ + + +,+ +,+ + + +,–,–
Cc1ccc(C(=O)Nc2ccc(NC(=O)Nc3cc(C(C)(C)C)on3)cc2)cc1 [Compound N92],–,+ + + +,+ + + +,–,+ + + +,> 10 µM,–
CC(C)(C)c1cc(NC(=O)Nc2ccc(NC(=O)c3ncccc3O)cc2)no1 [Compound N134],+ + + +,+ + + +,+ + + +,+ +,+ + + +,–,+ + +
CC(C)(C)c1cc(NC(=O)Nc2ccc(OCc3ccc4ccccc4c3)cc2)no1 [Compound G3],–,+ + + +,+ + + +,+ +,+ + + +,–,–
CC(C)(C)c1cc(NC(=O)Nc2ccc(NC(=O)/C=C/c3ccccc3Cl)cc2)no1 [Compound N40],–,+ + + +,+ + + +,–,+ + + +,> 10 µM,–
CC(C)(C)c1cc(NC(=O)Nc2ccc(CCc3ccc(N)cc3)cc2)no1 [Compound A3],–,+ + + +,+ + + +,+ +,+ + + +,–,–
CC(C)(C)c1cc(NC(=O)Nc2ccc(NC(=O)c3cnccn3)cc2)no1 [Compound N136],–,+ + + +,+ + + +,–,+ + + +,> 10 µM,–
Cn1cc(C(=O)Nc2ccc(NC(=O)Nc3cc(C(C)(C)C)on3)cc2)c2ccccc21 [Compound N119],–,+ + + +,+ + + +,+ +,+ + + +,–,–
CC(C)(C)c1cc(NC(=O)Nc2ccc(Nc3nc(N)nc4[nH]cnc34)cc2)no1 [Compound O6],–,+ + + +,+ + + +,–,+ + + +,> 10 µM,–
CC(C)(C)c1cc(NC(=O)Nc2ccc(NC(=O)c3csc(-c4ccncc4)n3)cc2)no1 [Compound N16],–,+ + + +,+ + +,–,+ + + +,> 10 µM,–
C=N/C(=N\C)Oc1cccc(C(=O)Nc2ccc(NC(=O)Nc3cc(C(C)(C)C)on3)cc2)c1 [Compound N74],+ + + +,+ + + +,+ + + +,+ +,–,–,–
"CC(C)(C)c1cc(NC(=O)Nc2ccc(OCCCc3ccncc3)cc2)no1 [Compound G1, 1-(4-(3-(pyridin-4-yl)propoxy)phenyl)-3-(5-tert-butylisoxazol-3-yl)urea]",–,+ + + +,+ + + +,–,+ + + +,> 10 µM,–
Cc1cnc(C(=O)Nc2ccc(NC(=O)Nc3cc(C(C)(C)C)on3)cc2)cn1 [Compound O2],–,+ + + +,+ + + +,–,+ + + +,> 10 µM,–
CC(C)(C)c1cc(NC(=O)Nc2ccc(Nc3nc(Cl)nc4[nH]cnc34)cc2)no1 [Compound O4],–,+ + + +,+ + + +,+ +,+ + + +,–,–
CC(C)(C)c1cc(NC(=O)Nc2ccc(OCCc3ccccc3F)cc2)no1 [Compound G25],–,+ + + +,+ + +,+ +,+ + + +,–,–
CC(C)(C)c1cc(NC(=O)Nc2ccc(NC(=O)c3ccc4sccc4c3)cc2)no1 [Compound N122],–,+ + + +,+ + + +,–,+ + + +,> 10 µM,–
CC(C)(C)c1cc(NC(=O)Nc2ccc(NC(=O)c3cnc4ccccc4c3)cc2)no1 [Compound N108],–,+ + + +,+ + + +,+ +,+ + + +,–,–
"CC(C)(C)c1cc(NC(=O)Nc2ccc(OCc3ccccc3F)cc2)no1 [Compound G12, 1-(4-(2-fluorobenzyloxy)phenyl)-3-(5-tert-butylisoxazol-3-yl)urea]",–,+ + + +,+ + + +,+ +,+ + + +,–,–
CC(C)(C)c1cc(NC(=O)Nc2ccc(OC/C=C/c3ccccc3Cl)cc2)no1 [Compound G26],–,+ + + +,+ + + +,+ +,+ + + +,–,–
